Reference: patent US12018058B2, “Compositions and methods for diagnosing and/or treating kidney injury” (Boston Medical Center Corporation, priority 2018, dated 2024)

Experiments:
[1] = tested on: mice subjected to bilateral renal pedicle clamping; test: Ischemic AKI by bilateral renal pedicle clamping (BUN, creatinine, survival); type: in vivo, C57BL/6J mice; conditions: 28 min bilateral pedicle clamping
Description: All animals were maintained under the guidance and policies of the Boston University Animal Core facility using National Institutes of Health (NIH) and Institutional Animal Care and Use Committee guidelines. Male and female C57BL/6J mice were purchased from Jackson Laboratory (Bar Harbor, ME), and they were housed and bred at the Boston University Animal Core facility under license number AN-15024. […] Animas were handled in a manner consistent with the NIH guide for their care and use under Institutional Animal Care and Use Committee approval.
Mice were subjected to bilateral renal pedicle clamping after being anesthetized with 2,2,2-tribromoethanol. […] 13,28,29 Slight variation in the clamp time was required to achieve similar degrees of renal dysfunction in the relatively large number of animals studied. The clamp was then removed, and reperfusion was confirmed by visual inspection of the kidneys. Sham ischemia was performed by encircling each renal pedicle with a nonocclusive ligature.
For in vitro testing in primary human PTECs, peptides ([…]) were tested that replicate the Bax domain responsible for binding NPM,34 or two peptides designed to interfere with NPM function were compared with a random nonspecific sequence of the same length (control). Peptides intended to interfere with NPM function overlap key phosphorylation sites located at the NPM amino terminus (peptide 2) or carboxy terminus (peptide 3) detected by mass spectrometry. To improve cell uptake, all peptides contained a cell-penetrating sequence13. For in vivo experiments, a renal-targeting sequence (NLS) was added to enhance renal peptide uptake.35 Peptides were commercially synthesized (Biomatik, Wilmington, DE) J Am Soc Nephrol 30: ccc-ccc, 2018 Nucleophosmin in AKI 3www.jasn.org BASIC RESEARCHas follows: NPM-Bax blocking peptide: Ac-KKKRKV-(bA)-[…]-COOH (SEQ ID NO: 8); peptide 2: AC-PKKKRKV-(bA)-[…]-COOH (SEQ ID NO: 9); and peptide 3: AC-PKKKRKV-(bA)-ESFKK-QEKTPKTPKGPSSVED-IKAK-COOH (SEQ ID NO: 10). […] A total of 42 control and 56 experimental animals were studied.
(§1) Transient exposure to metabolic inhibitors replicates ischemia in vivo by activating Bax and causing cell death.13,29,36-38 Cell viability was assayed using a modified colorimetric technique (MTTassay).37 The number of surviving cells is expressed as a percentage of viable control cells detected at baseline. Serum BUN and creatinine levels were measured in tail vein blood samples for 7 days after ischemia using QuantiChrom BUN or creatinine assay kits (BioAssay Systems, Hayward, CA) according to the manufacturer's instructions.

PTEC = test: Toxicity of pharmacologic agents in PTEC; type: cell-based; conditions: exposure to the IC50 dose for 48-72 hr; data not shown
Description: The inventors have also tested pharmacologic agents that disrupt NPM-Bax at specific steps in the cell death pathway (outlined in FIG. 11). These agents include geronylgeronylacetone (GGA), a potent Hsp70 inducer86, avrainvillamide, and NSC34888437. […] The inventors recently reported that GGA induces Hsp70 in murine PTEC and in the intact murine kidney. Hsp70 markedly reduces NPM-Bax complex formation during ischemic stress by 2 distinct mechanisms: a nucleolar-restricted Hsp70 mutant limits NPM translocation into the cytosol, whereas a cytosol restricted Hsp70 mutant sequesters […].

primary human PTECs = type: cell-based; conditions: PTECs, ATP depletion; versus control peptide
Description: Exposure to metabolic inhibitors is an established model of ischemic stress that reduces ATP content to, 10% of baseline values until recovery is initiated.24,26 To achieve ATP depletion, cells were washed three times in glucose-free DMEM (Invitrogen, Carlsbad, CA) followed by incubation in glucose-free DMEM containing sodium cyanide (5 mM) and 2-deoxy-glucose (5 mM) for the indicated times.26
Recovery was initiated by replacing the stress medium described above with complete primary cell culture medium containing glucose and substrates that support the rapid restoration of cell ATP.27
For in vitro testing in primary human PTECs, peptides ([…]) were tested that replicate the Bax domain responsible for binding NPM,34 or two peptides designed to interfere with NPM function were compared with a random nonspecific sequence of the same length (control). Peptides intended to interfere with NPM function overlap key phosphorylation sites located at the NPM amino terminus (peptide 2) or carboxy terminus (peptide 3) detected by mass spectrometry. To improve cell uptake, all peptides contained a cell-penetrating sequence13. For in vivo experiments, a renal-targeting sequence (NLS) was added to enhance renal peptide uptake.35 Peptides were commercially synthesized (Biomatik, Wilmington, DE) J Am Soc Nephrol 30: ccc-ccc, 2018 Nucleophosmin in AKI 3www.jasn.org BASIC RESEARCHas follows: NPM-Bax blocking peptide: Ac-KKKRKV-(bA)-[…]-COOH (SEQ ID NO: 8); peptide 2: AC-PKKKRKV-(bA)-[…]-COOH (SEQ ID NO: 9); and peptide 3: AC-PKKKRKV-(bA)-ESFKK-QEKTPKTPKGPSSVED-IKAK-COOH (SEQ ID NO: 10). A single dose ([…] of the NPM-Bax blocking or control peptide) was administered by tail vein injection immediately after release of the pedicle clamps(0 timepoint) […] in each experimental group. A total of 42 control and 56 experimental animals were studied.
as §1

Compound	Animal survival [1]	Mean peak BUN [1] [m/dl]	PTEC morphology and toxicity (PTEC)	Cell survival after ischemic stress (primary human PTECs)
CC(=O)CC/C=C(\C)CC/C=C(\C)CC/C=C(\C)CCC=C(C)C [GGA, geronylgeronylacetone, reference compound]	all survived	100	does not alter PTEC morphology or cause significant toxicity	–
O=C(C[n+]1cccc2cc(Cl)ccc21)c1cccc([N+](=O)[O-])c1.[Br-] [NSC34888437]	–	–	does not alter PTEC morphology or cause significant toxicity	–
CC1(C)C=Cc2c(ccc3c2[N+]([O-])=C2C3=C[C@@]34NC(=O)[C@]5(CCCN5C3=O)C[C@H]4C2(C)C)O1 [avrainvillamide]	–	–	does not alter PTEC morphology or cause significant toxicity	–
AC-PKKKRKV-(bA)-ESFKK-QEKTPKTPKGPSSVED-IKAK-COOH (PKKKRKVAESFKKQEKTPKTPKGPSSVEDIKAK; N-acetyl, NLS PKKKRKV-betaAla N-terminal; MOD_RES (8)..(8) Beta-alanine) [peptide #3]	–	–	–	significantly improve cell survival
AC-PKKKRKV-(bA)-TLKMSVQPTVSLGGFEITPPVVLRLK-COOH (PKKKRKVATLKMSVQPTVSLGGFEITPPVVLRLK; N-acetyl, NLS PKKKRKV, beta-alanine linker; MOD_RES (8)..(8) Beta-alanine) [peptide #2]	–	–	–	significantly improve cell survival
